# ChEMBL document CHEMBL1146450, “Ponicidin and oridonin are responsible for the antiangiogenic activity of Rabdosia rubescens, a constituent of the herbal supplement PC SPES” (J Nat Prod, 2004)
# Calls of active or inactive are those of the source. The rule behind the calls is not given here.
# Tests used:
# HMEC-1 [1] = assay: Antiangiogenic activity in HMEC1 cells assessed as inhibition of capillary-like network formation at 1.5 ug/ml after 18 hrs; format: functional, cell-based; conditions: Homo sapiens
# [2] = Cytotoxicity against HMEC1 cells by resazurin assay; format: cell-based; conditions: Homo sapiens, HMEC-1
# HMEC-1 [3] = assay: Antiangiogenic activity in HMEC1 cells assessed as inhibition of capillary-like network formation at 2.5 ug/ml after 18 hrs; format: functional, cell-based; conditions: Homo sapiens
Structure (SMILES),Activity (HMEC-1 [1]),IC50 [2],Activity (HMEC-1 [3])
C=C1C(=O)[C@]23[C@H](O)[C@H]1CC[C@H]2[C@@]12CO[C@]3(O)[C@@H](O)[C@@H]1C(C)(C)CC[C@@H]2O [ORIDONIN],Active,> 4 µg/mL,Active
C=C1C(=O)[C@@]23[C@@H]4OC5O[C@@]2(O)[C@@H](O)[C@@H]2C(C)(C)CC[C@@H](O)[C@]52[C@@H]3CC[C@@H]14,Active,–,Active
